Where two headings read alike, the source gives them in different places. Where a SMILES comes first, the peptide text is derived from it. Bridges are numbered along the chain shown (N, C = ends). [ ]: non-standard residue; d: D form. The star is where a group is joined. hPhe(3,5-F2-4-CF3) = N[C@@H](CCc1cc(F)c(C(F)(F)F)c(F)c1)C(=O)O; hPhe(3-Cl-4-CF3) = N[C@@H](CCc1ccc(C(F)(F)F)c(Cl)c1)C(=O)O; NPrPhe(4-CF3) = CCCN[C@@H](Cc1ccc(C(F)(F)F)cc1)C(=O)O; NMeGly(cPent) = CN[C@H](C(=O)O)C1CCCC1; NMeD = CN[C@@H](CC(=O)O)C(=O)O; Ac4c(3-oxa) = NC1(C(=O)O)COC1; NMeL = CN[C@@H](CC(C)C)C(=O)O; NEtAla = CCN[C@@H](C)C(=O)O; Morpholide = C1CN(*)CCO1; Ac5c = NC1(C(=O)O)CCCC1; Aze = O=C(O)[C@@H]1CCN1; X11 = CC1(C)CCN(*)C1; Sar = CNCC(=O)O
Legend:
HRAS wild-type protein = HRAS wild-type protein (Homo sapiens, UniProt P01112); assay: Binding to HRAS by surface plasmon resonance (SPR), KD and KD ratio to KRAS
Procedure, shortened: (§1)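 Affinity is measured by surface plasmon resonance at 30°C against captured, GDP-loaded RAS carrying a biotinylated Avi tag. Compounds are titrated by single-cycle kinetics, and KD comes from a 1:1 fit.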

[1] = tested on: human lung cancer strain NCI-H441; type: cell-based
Procedure, shortened: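 Readout: […] after the ATP-based reagent. Compound: serial dilutions in dimethyl sulfoxide.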

[2] = biological target: GDP-bound NRAS wild-type protein (Homo sapiens, UniProt P01111); assay: Binding to NRAS by surface plasmon resonance (SPR), KD and KD ratio to KRAS
Procedure, shortened: as §1

[3] = ratio of KD value for HRAS wild-type protein to KD value for KRAS (SPR)
[4] = ratio of KD value for GDP-bound NRAS wild-type protein to KD value for KRAS (SPR)
[5] = ratio of KD for HRAS wild-type protein to KD for KRAS
[6] = ratio of KD for GDP-bound NRAS wild-type protein to KD for KRAS
[7] = ratio of the KD value with respect to HRAS wild-type protein to the KD value with respect to KRAS
[8] = ratio of the KD value with respect to GDP-bound NRAS wild-type protein to the KD value with respect to KRAS

HRAS wild-type protein, sequence (P01112 whole entry): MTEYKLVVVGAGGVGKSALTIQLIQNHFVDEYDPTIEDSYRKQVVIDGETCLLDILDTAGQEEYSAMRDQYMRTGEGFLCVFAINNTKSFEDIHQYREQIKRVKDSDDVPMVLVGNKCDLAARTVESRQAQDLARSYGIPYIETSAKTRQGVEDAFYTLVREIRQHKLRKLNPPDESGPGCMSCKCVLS
GDP-bound NRAS wild-type protein, sequence (P01111 whole entry): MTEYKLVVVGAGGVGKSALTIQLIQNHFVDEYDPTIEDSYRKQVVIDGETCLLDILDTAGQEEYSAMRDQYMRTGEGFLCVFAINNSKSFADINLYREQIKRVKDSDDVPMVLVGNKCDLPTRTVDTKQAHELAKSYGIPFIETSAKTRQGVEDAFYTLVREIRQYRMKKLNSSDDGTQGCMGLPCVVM

CC[C@H](C)[C@@H]1NC(=O)[C@H](CC(C)C)N(C)C(=O)C[C@@H](C(=O)N(C)C)N(C)C(=O)[C@H](C2CCCC2)N(C)C(=O)C2(CC(C)(C)C2)NC(=O)[C@@H]2C[C@H](C)CN2C(=O)[C@H](CCc2cc(F)c(C(F)(F)F)c(F)c2)NC(=O)CN(C)C(=O)[C@H](Cc2ccc(C(F)(F)F)cc2)N2CC/C=C\C[C@@H](C2=O)N(C)C(=O)CN(C)C1=O [PP1662]
HRAS /KRAS (HRAS wild-type protein; [3]): B (a compound having 3 or more and less than 10 is denoted as B)
IC50 [1]: 6.4 nM
NRAS /KRAS [2, 4]: A (a compound having 10 or more and less than 20 is denoted as A)

CCO[C@@H]1C[C@H]2C(=O)NC3(CCC3)C(=O)N(C)[C@@H](CC(C)C)C(=O)N(C)[C@H](C(=O)N(C)C)CC(=O)N(C)[C@@H](CC)C(=O)N[C@@H]([C@@H](C)CC)C(=O)N(C)CC(=O)N(C)[C@H]3C/C=C\CCN(C3=O)[C@@H](Cc3ccc(C(F)(F)F)cc3)C(=O)N(C)CC(=O)N[C@@H](CCc3cc(F)c(C(F)(F)F)c(F)c3)C(=O)N2C1 [PP1089]
HRAS /KRAS (HRAS wild-type protein; [5]): A (a compound having 10 or more and less than 20 is denoted as A)
IC50 [1]: 57.3 nM
NRAS /KRAS [2, 6]: AA (a compound having 20 or more is denoted as AA)

C#CC[C@H]1C(=O)N[C@@H]([C@@H](C)CC)C(=O)N(C)CC(=O)N(C)[C@H]2C/C=C\CCN(C2=O)[C@@H](Cc2ccc(C(F)(F)F)cc2)C(=O)N(C)CC(=O)N[C@@H](CCc2cc(F)c(C(F)(F)F)c(F)c2)C(=O)N2C[C@H](OCC)C[C@H]2C(=O)NC2(CCC2)C(=O)N(C)[C@@H](C2CCCC2)C(=O)N(C)[C@H](C(=O)N(C)CCC)CC(=O)N1C [PP1703]
HRAS /KRAS (HRAS wild-type protein; [3]): A (a compound having 10 or more and less than 20 is denoted as A)
IC50 [1]: 7.2 nM
NRAS /KRAS [2, 4]: A (a compound having 10 or more and less than 20 is denoted as A)

CCCN1C(=O)CN(C)C(=O)CN(C)C(=O)[C@H]([C@@H](C)CC)NC(=O)[C@H](CC(C)C)N(C)C(=O)C[C@@H](C(=O)N(C)C)N(C)C(=O)[C@H](C2CCCC2)N(C)C(=O)C2(COC2)NC(=O)[C@@H]2CCCN2C(=O)[C@H](CCc2cc(F)c(C(F)(F)F)c(F)c2)NC(=O)CN(C)C(=O)[C@@H]1Cc1ccc(C(F)(F)F)cc1 [PP0744] ([NMeL]I[Sar][Sar][NPrPhe(4-CF3)][Sar][hPhe(3,5-F2-4-CF3)]P[Ac4c(3-oxa)][NMeGly(cPent)][NMeD]-NMe2; lactam N-11)
HRAS /KRAS (HRAS wild-type protein; [7]): B (a compound having 3 or more and less than 10 is denoted as B)
IC50 [1]: 57 nM
NRAS /KRAS [2, 8]: B (a compound having 3 or more and less than 10 is denoted as B)

CCC[C@H]1C(=O)N[C@@H]([C@@H](C)CC)C(=O)N(C)CC(=O)N(C)[C@H]2C/C=C\CCN(C2=O)[C@@H](Cc2ccc(C(F)(F)F)cc2)C(=O)N(C)CC(=O)N[C@@H](CCc2ccc(C3CC3)c(OC)c2)C(=O)N2C[C@H](OCC)C[C@H]2C(=O)NC2(CC(C)(C)C2)C(=O)N(C)[C@@H](C2CCCC2)C(=O)N(C)[C@H](C(=O)N(C)C)CC(=O)N1C [PP2853]
HRAS /KRAS (HRAS wild-type protein; [5]): A (a compound having 10 or more and less than 20 is denoted as A)
IC50 ([1]; NCI-H441 cells, 4 days, CellTiter-Glo, read-out: NCl-H441 IC50): 40.2 nM
NRAS /KRAS [2, 6]: A (a compound having 10 or more and less than 20 is denoted as A)

CCO[C@@H]1C[C@H]2C(=O)NC3(CCC3)C(=O)N(C)[C@@H](C3CCCC3)C(=O)N(C)[C@H](C(=O)N(C)C)CC(=O)N(C)[C@@H](Cc3ccccc3)C(=O)N[C@@H]([C@@H](C)CC)C(=O)N(C)CC(=O)N(C)[C@H]3C/C=C\CCN(C3=O)[C@@H](Cc3ccc(C(F)(F)F)cc3)C(=O)N(C)CC(=O)N[C@@H](CCc3cc(F)c(C(F)(F)F)c(F)c3)C(=O)N2C1 [PP1116]
HRAS /KRAS (HRAS wild-type protein; [5]): A (a compound having 10 or more and less than 20 is denoted as A)
IC50 [1]: 19.8 nM
NRAS /KRAS [2, 6]: A (a compound having 10 or more and less than 20 is denoted as A)

CC[C@H](C)[C@@H]1NC(=O)[C@H](CC(C)C)N(C)C(=O)C[C@@H](C(=O)N2CCOCC2)N(C)C(=O)[C@H](C2CCCC2)N(C)C(=O)C2(CCCC2)NC(=O)[C@@H]2CC(F)(F)CN2C(=O)[C@H](CCc2cc(F)c(C(F)(F)F)c(F)c2)NC(=O)CN(C)C(=O)[C@H](Cc2ccc(C(F)(F)F)cc2)N2CCCCC[C@@H](C2=O)N(C)C(=O)CN(C)C1=O [PP0491]
HRAS /KRAS (HRAS wild-type protein; [7]): B (a compound having 3 or more and less than 10 is denoted as B)
IC50 [1]: 33.1 nM
NRAS /KRAS [2, 8]: B (a compound having 3 or more and less than 10 is denoted as B)

CCCN1C(=O)CN(C)C(=O)CN(C)C(=O)[C@H]([C@@H](C)CC)NC(=O)[C@H](CC(C)C)N(C)C(=O)C[C@@H](C(=O)N2CCC(C)(C)C2)N(C)C(=O)[C@H](C2CCCC2)N(C)C(=O)C2(CCCC2)NC(=O)[C@@H]2CCCN2C(=O)[C@H](CCc2ccc(C(F)(F)F)c(Cl)c2)NC(=O)CN(C)C(=O)[C@@H]1Cc1ccc(C(F)(F)F)cc1 [PP0177] ([NMeL]I[Sar][Sar][NPrPhe(4-CF3)][Sar][hPhe(3-Cl-4-CF3)]P[Ac5c][NMeGly(cPent)][NMeD]-X11; lactam N-11)
HRAS /KRAS (HRAS wild-type protein; [5]): C (A compound having a KD ratio of 0.1 or more and less than 3 is denoted as C)
IC50 [1]: 34.4 nM
NRAS /KRAS [2, 6]: B (a compound having 3 or more and less than 10 is denoted as B)

CCCN1C(=O)[C@@H]2CCN2C(=O)[C@H](C)N(CC)C(=O)[C@H]([C@@H](C)CC)NC(=O)[C@H](CC(C)C)N(C)C(=O)C[C@@H](C(=O)N2CCOCC2)N(C)C(=O)[C@H](C2CCCC2)N(C)C(=O)C2(CCCC2)NC(=O)[C@@H]2CCCN2C(=O)[C@H](CCc2ccc(C(F)(F)F)c(Cl)c2)NC(=O)CN(C)C(=O)[C@@H]1Cc1ccc(C(F)(F)F)cc1 [PP0152] ([NMeL]I[NEtAla][Aze][NPrPhe(4-CF3)][Sar][hPhe(3-Cl-4-CF3)]P[Ac5c][NMeGly(cPent)][NMeD]-Morpholide; lactam N-11)
HRAS /KRAS (HRAS wild-type protein; [5]): B (a compound having 3 or more and less than 10 is denoted as B)
IC50 [1]: 37.9 nM
NRAS /KRAS [2, 6]: C (A compound having a KD ratio of 0.1 or more and less than 3 is denoted as C)

CC[C@H](C)[C@@H]1NC(=O)[C@H](CC(F)F)N(C)C(=O)C[C@@H](C(=O)N(C)CC)N(C)C(=O)[C@H](C2CCCC2)N(C)C(=O)C2(CC(C)(C)C2)NC(=O)[C@@H]2C[C@H](C)CN2C(=O)[C@H](CCc2ccc(C(F)(F)F)c(Cl)c2)NC(=O)CN(C)C(=O)[C@H](Cc2ccc(C)cc2)N2CC/C=C\C[C@@H](C2=O)N(C)C(=O)CN(C)C1=O [PP1911]
HRAS /KRAS (HRAS wild-type protein; [7]): A (a compound having 10 or more and less than 20 is denoted as A)
IC50 [1]: 11.7 nM
NRAS /KRAS [2, 8]: A (a compound having 10 or more and less than 20 is denoted as A)

CC[C@H](C)[C@@H]1NC(=O)[C@H](CC(C)C)N(C)C(=O)C[C@@H](C(=O)N2CCOCC2)N(C)C(=O)[C@H](C2CCCC2)N(C)C(=O)C2(CCC2)NC(=O)[C@@H]2[C@@H](OCC3CCCC3)CCN2C(=O)[C@H](CCc2cc(F)c(C(F)(F)F)c(F)c2)NC(=O)CN(C)C(=O)[C@H](Cc2ccc(C(F)(F)F)cc2)N2CCCC[C@@H](C2=O)N(C)C(=O)CN(C)C1=O [PP1073]
HRAS /KRAS (HRAS wild-type protein; [5]): B (a compound having 3 or more and less than 10 is denoted as B)
IC50 [1]: 83.7 nM
NRAS /KRAS [2, 6]: B (a compound having 3 or more and less than 10 is denoted as B)

CC[C@H](C)[C@@H]1NC(=O)[C@H](CC(C)C)N(C)C(=O)C[C@@H](C(=O)N2CCOCC2)N(C)C(=O)[C@H](C2CCCC2)N(C)C(=O)C2(CCCC2)NC(=O)[C@@H]2CCCN2C(=O)[C@H](CCc2cc(F)c(C(F)(F)F)c(F)c2)NC(=O)CN(C)C(=O)[C@H](Cc2ccc(C(F)(F)F)cc2)N2CCCC[C@@H](C2=O)N(C)C(=O)[C@H](C)NC1=O [PP0543]
HRAS /KRAS (HRAS wild-type protein; [7]): B (a compound having 3 or more and less than 10 is denoted as B)
IC50 [1]: 41.5 nM
NRAS /KRAS [2, 8]: B (a compound having 3 or more and less than 10 is denoted as B)

CCO[C@@H]1C[C@H]2C(=O)NC3(CC(C)(C)C3)C(=O)N(C)[C@@H](C(CC)CC)C(=O)N(C)[C@H](C(=O)N(C)C)CC(=O)N(C)[C@@H](CC3CCC3)C(=O)N[C@@H]([C@@H](C)CC)C(=O)N(C)CC(=O)N(C)[C@H]3C/C=C\CCN(C3=O)[C@@H](Cc3ccc(C(F)(F)F)cc3)C(=O)N(C)CC(=O)N[C@@H](CCc3ccc(C(F)(F)F)c(Cl)c3)C(=O)N2C1 [PP2138]
HRAS /KRAS (HRAS wild-type protein; [7]): A (a compound having 10 or more and less than 20 is denoted as A)
IC50 [1]: 15.7 nM
NRAS /KRAS [2, 8]: A (a compound having 10 or more and less than 20 is denoted as A)

CCC[C@H]1C(=O)N[C@@H]([C@@H](C)CC)C(=O)N(C)CC(=O)N(C)[C@H]2C/C=C\CCN(C2=O)[C@@H](Cc2ccc(C(F)(F)F)cc2)C(=O)N(C)CC(=O)N[C@@H](CCc2cc(F)c(C(F)(F)F)c(F)c2)C(=O)N(CC)CC(=O)NC2(CC(C)(C)C2)C(=O)N(C)[C@@H](C2CCCC2)C(=O)N(C)[C@H](C(=O)N(C)C)CC(=O)N1C [PP1777]
HRAS /KRAS (HRAS wild-type protein; [3]): B (a compound having 3 or more and less than 10 is denoted as B)
IC50 [1]: 79.3 nM
NRAS /KRAS [2, 4]: A (a compound having 10 or more and less than 20 is denoted as A)

From patent publication EP4603105A1, “PHARMACEUTICAL COMPOSITION CONTAINING CYCLIC COMPOUND HAVING SELECTIVE KRAS INHIBITORY EFFECT AGAINST HRAS AND NRAS” (CHUGAI SEIYAKU KABUSHIKI KAISHA, priority 2022, dated 2024)
